Measured values as given in ChEMBL document CHEMBL4138086, “Design and synthesis of bis(indolyl)ketohydrazide-hydrazones: Identification of potent and selective novel tubulin inhibitors” (Eur J Med Chem, 2017).

Experiments:
Jurkat [1] = assay: Cytotoxicity against human Jurkat cells assessed as cell survival at 10 uM after 48 hrs by MTT assay relative to control; type: functional; details: read-out: Survival
HCT-116 [2] = assay: Cytotoxicity against human HCT116 cells assessed as cell survival at 10 uM after 48 hrs by MTT assay relative to control; type: functional; details: HCT-116, 48 h, read-out: Survival
MDA-MB-231 [3] = assay: Cytotoxicity against human MDA-MB-231 cells assessed as cell survival at 10 uM after 48 hrs by MTT assay relative to control; type: functional; details: MDA-MB-231, 48 h, read-out: Survival
BT-474 [4] = assay: Cytotoxicity against human BT474 cells assessed as cell survival at 10 uM after 48 hrs by MTT assay relative to control; type: functional; details: BT-474, 48 h, read-out: Survival
MCF7 [5] = assay: Cytotoxicity against human MCF7 cells assessed as cell survival at 10 uM after 48 hrs by MTT assay relative to control; type: functional; details: MCF7, 48 h, read-out: Survival
MDA-MB-231 [6] = assay: Cytotoxicity against human MDA-MB-231 cells assessed as reduction in cell survival after 48 hrs by MTT assay; type: functional, cell-based; details: MDA-MB-231, 48 h
MCF7 [7] = assay: Cytotoxicity against human MCF7 cells assessed as reduction in cell survival after 48 hrs by MTT assay; type: functional, cell-based; details: MCF7, 48 h
Jurkat [8] = assay: Induction of apoptosis in human Jurkat cells increase in caspase 3/7 activity at 1 uM measured up to 180 mins by fluorescence assay relative to control; type: functional
Jurkat [9] = assay: Cytotoxicity against human Jurkat cells assessed as reduction in cell survival after 48 hrs by MTT assay; type: functional, cell-based
HCT-116 [10] = assay: Cytotoxicity against human HCT116 cells assessed as reduction in cell survival after 48 hrs by MTT assay; type: functional, cell-based; details: HCT-116, 48 h
A549 = assay: Cytotoxicity against human A549 cells assessed as reduction in cell viability; type: functional, cell-based
MDA-MB-231 [11] = assay: Cytotoxicity against human MDA-MB-231 cells assessed as reduction in cell viability; type: functional, cell-based
P388 = assay: Cytotoxicity against mouse P388 cells assessed as reduction in cell viability; type: functional, cell-based
HCT-8 = assay: Cytotoxicity against human HCT8 cells assessed as reduction in cell viability; type: functional, cell-based
DU-145 = assay: Cytotoxicity against human DU145 cells assessed as reduction in cell viability; type: functional, cell-based
BT-474 [12] = assay: Cytotoxicity against human BT474 cells assessed as reduction in cell survival after 48 hrs by MTT assay; type: functional, cell-based; details: BT-474, 48 h
MDA-MB-231 [13] = assay: Toxicity in human MDA-MB-231 cells at 20 uM after 40 hrs by LDH assay; type: cell-based; details: mda-mb-231, 40 h
HCT-116 [14] = assay: Toxicity in human HCT116 cells at 20 uM after 40 hrs by LDH assay; type: cell-based; details: hct-116, 40 h
Sus scrofa [15] = species: Sus scrofa; assay: Inhibition of porcine brain tubulin polymerization incubated for 5 mins by fluorimetry
Jurkat [16] = assay: Toxicity in human Jurkat cells at 20 uM after 40 hrs by LDH assay; type: cell-based
MCF7 [17] = assay: Toxicity in human MCF7 cells at 20 uM after 40 hrs by LDH assay; type: cell-based; details: mcf7, 40 h
Sus scrofa [18] = species: Sus scrofa; assay: Inhibition of porcine brain tubulin polymerization at 3.2 uM incubated for 5 mins by fluorimetry
BT-474 [19] = assay: Toxicity in human BT474 cells at 20 uM after 40 hrs by LDH assay; type: cell-based; details: bt-474, 40 h

SMILES | viability at 10 µM (Jurkat [1]) [%] | viability at 10 µM (HCT-116 [2]) [%] | viability at 10 µM (MDA-MB-231 [3]) [%] | viability at 10 µM (BT-474 [4]) [%] | viability at 10 µM (MCF7 [5]) [%] | also measured
COc1cccc(/C=N/NC(=O)C(=O)c2c[nH]c3ccccc23)c1 | 59.7 | 72.4 | 97.2 | 95.1 | 96.8 | –
COc1ccc2c(c1)c(/C=N/NC(=O)C(=O)c1c[nH]c3ccc(Br)cc13)cn2Cc1ccc(Cl)cc1 | 46.6 | 86.1 | 103 | 99.1 | 96.1 | –
O=C(N/N=C/c1c[nH]c2ccccc12)C(=O)c1c[nH]c2ccccc12 | 33.6 | 88.4 | 98.6 | 83 | 99.2 | –
O=C(N/N=C/c1c[nH]c2ccc(Br)cc12)C(=O)c1c[nH]c2ccccc12 | 25.5 | 26.3 | 34 | 82.4 | 35 | IC50 (MDA-MB-231 [6]): 5.6 µM; IC50 (MCF7 [7]): 3.3 µM; fold change (FC) (Jurkat [8]): 2 - 5; IC50 (Jurkat [9]): 5 µM; IC50 (HCT-116 [10]): 6.6 µM
CN1CC(c2c[nH]c3cc(Br)ccc23)N(C)CC1c1c[nH]c2cc(Br)ccc12 (stereo unspecified) | – | – | – | – | – | IC50 (A549): 1 to 10 µM; IC50 (MDA-MB-231 [11]): 1 to 10 µM; IC50 (P388): 15 µM; IC50 (HCT-8): 1 to 10 µM
O=C(N/C=C/c1c[nH]c2ccc(Br)cc12)C(=O)c1c[nH]c2c(O)cccc12 | – | – | – | – | – | IC50 (DU-145): 7.6 µM
O=C(N/N=C/c1ccncc1)C(=O)c1cn(Cc2ccc(Cl)cc2)c2ccccc12 | 66.7 | 69.1 | 71.2 | 78.7 | 82.2 | –
O=C(N/N=C/c1cn(Cc2ccc(Cl)cc2)c2ccc(Br)cc12)C(=O)c1c[nH]c2ccccc12 | 93.2 | 72.6 | 88.8 | 94.7 | 107 | –
COc1ccc(/C=N/NC(=O)C(=O)c2c[nH]c3ccccc23)cc1 | 61.9 | 101 | 102 | 97.5 | 106 | –
COc1ccc2[nH]cc(/C=N/NC(=O)C(=O)c3c[nH]c4ccccc34)c2c1 | 19.3 | 17.6 | 21.6 | 20.3 | 17.2 | IC50 (MDA-MB-231 [6]): 1.7 µM; IC50 (BT-474 [12]): 1.1 µM; IC50 (MCF7 [7]): 1.8 µM; fold change (FC) (Jurkat [8]): 2 - 5; IC50 (Jurkat [9]): 0.5 µM; IC50 (HCT-116 [10]): 0.4 µM
COc1cccc2c1C(=O)c1c(O)c3c(c(O)c1C2=O)C[C@@](O)(C(=O)CO)C[C@@H]3O[C@H]1C[C@H](N)[C@H](O)[C@H](C)O1 [DOXORUBICIN] | 21 | 25 | 22.5 | 17.6 | 27 | IC50 (MDA-MB-231 [6]): 0.55 µM; IC50 (BT-474 [12]): 0.3 µM; IC50 (Jurkat [9]): 0.26 µM
O=C(N/N=C/c1c[nH]c2cc(Br)ccc12)C(=O)c1c[nH]c2ccccc12 | 75.4 | 94.5 | 95.1 | 86.8 | 92.7 | –
COc1ccc2[nH]cc(/C=N/NC(=O)C(=O)c3cn(Cc4ccc(Cl)cc4)c4ccccc34)c2c1 | 36.1 | 38.2 | 29.4 | 21.2 | 33.7 | Activity (MDA-MB-231 [13]): 20 to 25%; IC50 (MDA-MB-231 [6]): 2.9 µM; Activity (HCT-116 [14]): 20 to 25%; IC50 (BT-474 [12]): 2.7 µM; inhibition (Sus scrofa [15]): Dose-dependent effect; Activity (Jurkat [16]): 20 to 25%; Activity (MCF7 [17]): 20 to 25%; IC50 (MCF7 [7]): 3.8 µM; fold change (FC) (Jurkat [8]): 2 - 5; inhibition (Sus scrofa [18]): 50%; Activity (BT-474 [19]): 20 to 25%; IC50 (Jurkat [9]): 3.6 µM; IC50 (HCT-116 [10]): 4.2 µM
O=C(N/N=C/c1c[nH]c2cc(F)ccc12)C(=O)c1c[nH]c2ccccc12 | 69.9 | 104 | 106 | 88.2 | 40.2 | –
COc1ccc2c(/C=N/NC(=O)C(=O)c3c[nH]c4ccccc34)c[nH]c2c1 | 52.1 | 38.8 | 103 | 95.6 | 34.6 | IC50 (MCF7 [7]): 6.1 µM; IC50 (Jurkat [9]): 10 µM; IC50 (HCT-116 [10]): 2.5 µM
O=C(N/C=C/c1c[nH]c2ccccc12)C(=O)c1c[nH]c2ccccc12 | – | – | – | – | – | IC50 (DU-145): 7.6 µM
COc1ccc2c(/C=N/NC(=O)C(=O)c3c[nH]c4ccc(Br)cc34)c[nH]c2c1 | 74.1 | 71.4 | 112 | 92 | 91.4 | –
COc1ccc(/C=N/NC(=O)C(=O)c2c[nH]c3ccccc23)cc1OC | 78.9 | 92.8 | 94.6 | 103 | 99.8 | –
COc1ccc(Cn2cc(/C=N/NC(=O)C(=O)c3c[nH]c4ccc(Br)cc34)c3cc(OC)ccc32)cc1 | 81.9 | 65.7 | 102 | 91.1 | 112 | –
Cn1c(-c2cn(C)c3ccccc23)cnc1-c1cn(C)c2cc(Br)ccc12 [N-METHYL NORTOPSENTIN B] | – | – | – | – | – | IC50 (P388): 4.5 to 20.7 µM
O=C(N/C=C/c1c[nH]c2cc(Br)ccc12)C(=O)c1c[nH]c2ccccc12 | – | – | – | – | – | IC50 (DU-145): 7.6 µM
Brc1ccc2c(-c3c[nH]c(-c4c[nH]c5cc(Br)ccc45)n3)c[nH]c2c1 [NORTOPSENTIN A] | – | – | – | – | – | IC50 (P388): 4.5 to 20.7 µM
O=C(N/N=C/c1c[nH]c2ccc(F)cc12)C(=O)c1c[nH]c2ccccc12 | 56.7 | 85.1 | 102 | 112 | 105 | –
O=C(Nc1ccncc1)C(=O)c1cn(Cc2ccc(Cl)cc2)c2ccccc12 [INDIBULIN] | – | – | – | – | – | IC50 (MCF7 [7]): 1.1 µM
O=C(N/N=C/c1c[nH]c2cc(F)ccc12)C(=O)c1c[nH]c2ccc(Br)cc12 | 95.8 | 84.2 | 111 | 94.8 | 97.5 | –
Brc1ccc2c(-c3c[nH]c(-c4c[nH]c5ccccc45)n3)c[nH]c2c1 [NORTOPSENTIN C] | – | – | – | – | – | IC50 (P388): 4.5 to 20.7 µM
COc1ccc(-c2[nH]c3ccccc3c2/C=N/NC(=O)C(=O)c2c[nH]c3ccccc23)cc1 | 81.6 | 71.8 | 98.8 | 94.2 | 107 | –
COc1cc(/C=N/NC(=O)C(=O)c2c[nH]c3ccccc23)cc(OC)c1OC | 69.6 | 99.1 | 103 | 101 | 110 | –
